According to the NIST ThermoML archive (doi:10.1016/j.jct.2018.11.014):
Numbers after ± are expanded uncertainties.

Assay: molar heat capacity at constant pressure
Conditions: 101.33 kPa, Crystal, Vacuum adiabatic calorimetry

O=C(CO)[C@H](O)[C@H](O)[C@H](O)CO [D-psicose]
Conditions | molar heat capacity at constant pressure [J/K/mol]
123.06 K | 95.25 ± 0.97
123.75 K | 95.92 ± 0.98
124.29 K | 96.23 ± 0.98
124.5 K | 96.3 ± 0.99
125.14 K | 96.92 ± 0.99
125.8 K | 97.36 ± 1
125.92 K | 97.34 ± 1
126.54 K | 97.93 ± 1
127.3 K | 98.49 ± 1
127.33 K | 98.38 ± 1
127.93 K | 98.98 ± 1
128.73 K | 99.42 ± 1
128.78 K | 99.54 ± 1
129.31 K | 99.93 ± 1
130 K | 100.42 ± 1
130.16 K | 100.47 ± 1
130.29 K | 100.63 ± 1
130.71 K | 100.99 ± 1
131.62 K | 101.53 ± 1
131.84 K | 101.76 ± 1
132.14 K | 102.08 ± 1
133.07 K | 102.57 ± 1.1
133.37 K | 102.87 ± 1.1
133.59 K | 103.04 ± 1.1
134.51 K | 103.62 ± 1.1
134.89 K | 103.97 ± 1.1
135.06 K | 104.17 ± 1.1
135.94 K | 104.68 ± 1.1
136.44 K | 105.12 ± 1.1
136.51 K | 105.24 ± 1.1
137.4 K | 105.69 ± 1.1
137.99 K | 106.23 ± 1.1
138.07 K | 106.25 ± 1.1
138.89 K | 106.78 ± 1.1
139.5 K | 107.37 ± 1.1
139.73 K | 107.46 ± 1.1
140 K | 107.65 ± 1.1
140.36 K | 107.86 ± 1.1
141 K | 108.43 ± 1.1
141.38 K | 108.63 ± 1.1
141.83 K | 108.94 ± 1.1
142.49 K | 109.66 ± 1.1
143.02 K | 109.81 ± 1.1
143.29 K | 109.97 ± 1.1
143.97 K | 110.56 ± 1.1
144.64 K | 111.02 ± 1.1
144.78 K | 111.03 ± 1.1
145.47 K | 111.62 ± 1.1
146.29 K | 112.11 ± 1.1
146.3 K | 112.15 ± 1.1
147.05 K | 112.77 ± 1.1
147.84 K | 113.18 ± 1.1
147.99 K | 113.34 ± 1.1
148.65 K | 113.9 ± 1.2
149.42 K | 114.29 ± 1.2
149.66 K | 114.52 ± 1.2
150 K | 114.81 ± 1.2
150.25 K | 115.05 ± 1.2
150.99 K | 115.45 ± 1.2
151.33 K | 115.73 ± 1.2
151.83 K | 116.23 ± 1.2
152.59 K | 116.62 ± 1.2
152.98 K | 116.92 ± 1.2
153.45 K | 117.32 ± 1.2
154.22 K | 117.72 ± 1.2
154.66 K | 118.11 ± 1.2
155.09 K | 118.5 ± 1.2
155.87 K | 118.94 ± 1.2
156.38 K | 119.3 ± 1.2
156.72 K | 119.64 ± 1.2
157.54 K | 120.08 ± 1.2
158.08 K | 120.68 ± 1.2
158.34 K | 120.83 ± 1.2
159.19 K | 121.26 ± 1.2
159.8 K | 121.76 ± 1.2
159.95 K | 121.9 ± 1.2
160 K | 121.93 ± 1.2
160.88 K | 122.45 ± 1.2
161.55 K | 122.94 ± 1.2
161.59 K | 123.12 ± 1.2
162.65 K | 123.73 ± 1.3
163.25 K | 124.33 ± 1.3
163.33 K | 124.2 ± 1.3
164.46 K | 125 ± 1.3
164.91 K | 125.57 ± 1.3
165.14 K | 125.56 ± 1.3
166.25 K | 126.31 ± 1.3
166.6 K | 126.8 ± 1.3
166.94 K | 126.82 ± 1.3
168.04 K | 127.62 ± 1.3
168.33 K | 127.92 ± 1.3
168.72 K | 128.08 ± 1.3
169.85 K | 128.88 ± 1.3
170 K | 129.01 ± 1.3
170.09 K | 129.15 ± 1.3
170.5 K | 129.38 ± 1.3
171.7 K | 130.21 ± 1.3
171.88 K | 130.42 ± 1.3
172.31 K | 130.62 ± 1.3
173.54 K | 131.46 ± 1.3
173.65 K | 131.69 ± 1.3
174.14 K | 131.92 ± 1.3
175.36 K | 132.69 ± 1.4
175.42 K | 132.94 ± 1.4
175.97 K | 133.17 ± 1.4
177.18 K | 134.01 ± 1.4
177.23 K | 134.2 ± 1.4
177.78 K | 134.49 ± 1.4
179.06 K | 135.42 ± 1.4
179.11 K | 135.51 ± 1.4
179.59 K | 135.75 ± 1.4
180 K | 136.08 ± 1.4
181.01 K | 136.76 ± 1.4
181.03 K | 136.92 ± 1.4
181.46 K | 137.08 ± 1.4
182.93 K | 138.2 ± 1.4
182.95 K | 138.09 ± 1.4
183.4 K | 138.47 ± 1.4
184.83 K | 139.53 ± 1.4
184.88 K | 139.49 ± 1.4
185.32 K | 139.84 ± 1.4
186.71 K | 140.84 ± 1.4
186.79 K | 140.88 ± 1.4
187.28 K | 141.21 ± 1.4
188.62 K | 142.21 ± 1.4
188.74 K | 142.23 ± 1.4
189.26 K | 142.58 ± 1.4
190 K | 143.15 ± 1.4
190.56 K | 143.63 ± 1.5
190.71 K | 143.67 ± 1.5
191.28 K | 144.05 ± 1.5
192.49 K | 144.97 ± 1.5
192.68 K | 145.06 ± 1.5
193.32 K | 145.45 ± 1.5
194.41 K | 146.37 ± 1.5
194.63 K | 146.4 ± 1.5
195.35 K | 146.92 ± 1.5
196.32 K | 147.62 ± 1.5
196.58 K | 147.65 ± 1.5
197.38 K | 148.33 ± 1.5
198.25 K | 149.1 ± 1.5
198.55 K | 149.16 ± 1.5
199.39 K | 149.76 ± 1.5
200 K | 150.21 ± 1.5
200.22 K | 150.43 ± 1.5
200.55 K | 150.56 ± 1.5
201.43 K | 151.19 ± 1.5
202.17 K | 151.83 ± 1.5
202.58 K | 152.06 ± 1.5
203.5 K | 152.67 ± 1.6
204.12 K | 153.18 ± 1.6
204.65 K | 153.53 ± 1.6
205.56 K | 154.09 ± 1.6
206.7 K | 154.98 ± 1.6
207.61 K | 155.56 ± 1.6
208.78 K | 156.4 ± 1.6
209.65 K | 157.04 ± 1.6
210 K | 157.3 ± 1.6
210.89 K | 157.92 ± 1.6
211.72 K | 158.49 ± 1.6
212.99 K | 159.44 ± 1.6
213.81 K | 160.01 ± 1.6
215.07 K | 160.9 ± 1.6
215.9 K | 161.43 ± 1.6
217.15 K | 162.36 ± 1.6
217.98 K | 163.06 ± 1.6
219.31 K | 163.88 ± 1.7
220 K | 164.4 ± 1.7
220.04 K | 164.46 ± 1.7
221.53 K | 165.48 ± 1.7
222.21 K | 165.84 ± 1.7
223.74 K | 167.09 ± 1.7
224.47 K | 167.6 ± 1.7
225.94 K | 168.64 ± 1.7
226.71 K | 169.21 ± 1.7
228.14 K | 170.2 ± 1.7
228.95 K | 170.75 ± 1.7
230 K | 171.54 ± 1.7
230.36 K | 171.83 ± 1.7
231.25 K | 172.46 ± 1.7
232.61 K | 173.46 ± 1.8
233.65 K | 174.15 ± 1.8
234.87 K | 174.98 ± 1.8
236.07 K | 175.9 ± 1.8
237.14 K | 176.72 ± 1.8
238.49 K | 177.45 ± 1.8
239.4 K | 178.38 ± 1.8
240 K | 178.72 ± 1.8
240.95 K | 179.37 ± 1.8
241.69 K | 179.82 ± 1.8
243.45 K | 181.14 ± 1.8
244.01 K | 181.62 ± 1.8
245.99 K | 183.07 ± 1.9
246.32 K | 183.25 ± 1.9
248.54 K | 184.87 ± 1.9
248.61 K | 184.95 ± 1.9
250 K | 185.94 ± 1.9
250.9 K | 186.65 ± 1.9
251.09 K | 186.81 ± 1.9
253.21 K | 188.45 ± 1.9
253.63 K | 188.66 ± 1.9
255.55 K | 189.85 ± 1.9
256.15 K | 190.4 ± 1.9
257.88 K | 191.75 ± 1.9
258.7 K | 192.25 ± 1.9
260 K | 193.15 ± 1.9
260.93 K | 193.78 ± 2
263.32 K | 195.6 ± 2
265.71 K | 197.22 ± 2
268.09 K | 199.02 ± 2
270 K | 200.36 ± 2
270.5 K | 200.87 ± 2
272.99 K | 202.45 ± 2
275.52 K | 204.17 ± 2.1
278.04 K | 206.05 ± 2.1
280 K | 207.59 ± 2.1
280.55 K | 207.87 ± 2.1
281.85 K | 208.9 ± 2.1
282.34 K | 209.34 ± 2.1
283.14 K | 209.63 ± 2.1
284.44 K | 210.76 ± 2.1
284.81 K | 211 ± 2.1
285.82 K | 211.74 ± 2.1
287.07 K | 212.81 ± 2.1
287.31 K | 212.9 ± 2.1
288.48 K | 213.7 ± 2.2
289.68 K | 214.75 ± 2.2
289.9 K | 214.79 ± 2.2
290 K | 214.85 ± 2.2
291.13 K | 215.63 ± 2.2
292.28 K | 216.49 ± 2.2
292.52 K | 216.73 ± 2.2
293.77 K | 217.6 ± 2.2
294.87 K | 218.44 ± 2.2
295.13 K | 218.64 ± 2.2
296.44 K | 219.94 ± 2.2
297.49 K | 220.33 ± 2.2
298.15 K | 220.79 ± 2.2
299.14 K | 221.01 ± 2.2
300 K | 222.14 ± 2.2
300.13 K | 222.34 ± 2.2
301.82 K | 223.5 ± 2.3
302.77 K | 224.25 ± 2.3
304.49 K | 225.49 ± 2.3
305.39 K | 226.09 ± 2.3
307.15 K | 227.47 ± 2.3
308 K | 228.01 ± 2.3
309.84 K | 229.4 ± 2.3
310 K | 229.48 ± 2.3
310.63 K | 229.95 ± 2.3
312.56 K | 231.38 ± 2.3
313.29 K | 231.87 ± 2.3
315.26 K | 233.4 ± 2.4
315.94 K | 233.92 ± 2.4
318.01 K | 235.4 ± 2.4
318.58 K | 235.78 ± 2.4
320 K | 236.88 ± 2.4
320.81 K | 237.33 ± 2.4
321.2 K | 237.81 ± 2.4
323.64 K | 239.66 ± 2.4
323.85 K | 239.71 ± 2.4
326.49 K | 241.59 ± 2.4
326.53 K | 241.79 ± 2.4
329.19 K | 243.75 ± 2.5
329.33 K | 243.86 ± 2.5
330 K | 244.34 ± 2.5
